Measured values published in paper PMC12454493, “Insight on novel sulfamoylphenyl pyrazole derivatives as anticancer carbonic anhydrase inhibitors” (Molecular Diversity, 2024).
Where “and” joins values, the source holds several entries; their conditions need not be identical. Identical values can stand only once.

How the values were obtained:
[1] = system: CCRF-CEM; assay: NCI-60 one-dose SRB screen (Leukemia); format: cell-based; settings: Homo sapiens, single dose 10 µM, 48 h, read-out: Growth inhibition percent (GI %)
[2] = system: A549/ATCC; assay: NCI-60 one-dose SRB screen (Non-Small Cell Lung Cancer); format: cell-based; settings: Homo sapiens, single dose 10 µM, 48 h, read-out: Growth inhibition percent (GI %)
[3] = system: EKVX; assay: as above; format: cell-based; settings: Homo sapiens, single dose 10 µM, 48 h, read-out: Growth inhibition percent (GI %)
[4] = system: HOP-62; assay: as above; format: cell-based; settings: Homo sapiens, single dose 10 µM, 48 h, read-out: Growth inhibition percent (GI %)
[5] = system: HOP-92; assay: as above; format: cell-based; settings: Homo sapiens, single dose 10 µM, 48 h, read-out: Growth inhibition percent (GI %)
[6] = system: NCI-H226; assay: as above; format: cell-based; settings: Homo sapiens, single dose 10 µM, 48 h, read-out: Growth inhibition percent (GI %)
[7] = system: NCI-H23; assay: as above; format: cell-based; settings: Homo sapiens, single dose 10 µM, 48 h, read-out: Growth inhibition percent (GI %)
[8] = system: NCI-H322M; assay: as above; format: cell-based; settings: Homo sapiens, single dose 10 µM, 48 h, read-out: Growth inhibition percent (GI %)
[9] = system: NCI-H460; assay: as above; format: cell-based; settings: Homo sapiens, single dose 10 µM, 48 h, read-out: Growth inhibition percent (GI %)
[10] = system: NCI-H522; assay: as above; format: cell-based; settings: Homo sapiens, single dose 10 µM, 48 h, read-out: Growth inhibition percent (GI %)
[11] = system: COLO 205; assay: NCI-60 one-dose SRB screen (Colon Cancer); format: cell-based; settings: Homo sapiens, single dose 10 µM, 48 h, read-out: Growth inhibition percent (GI %)
[12] = system: HCC-2998; assay: NCI-60 one-dose SRB screen (Colon Cancer); format: cell-based; settings: Homo sapiens, single dose 10 µM, 48 h, read-out: Growth inhibition percent (GI %)
[13] = system: HCT-116; assay: NCI-60 one-dose SRB screen (Colon Cancer); format: cell-based; settings: Homo sapiens, single dose 10 µM, 48 h, read-out: Growth inhibition percent (GI %)
[14] = system: HCT-15; assay: NCI-60 one-dose SRB screen (Colon Cancer); format: cell-based; settings: Homo sapiens, single dose 10 µM, 48 h, read-out: Growth inhibition percent (GI %)
[15] = system: HT29; assay: NCI-60 one-dose SRB screen (Colon Cancer); format: cell-based; settings: Homo sapiens, HT-29, single dose 10 µM, 48 h, read-out: Growth inhibition percent (GI %)
[16] = system: KM12; assay: NCI-60 one-dose SRB screen (Colon Cancer); format: cell-based; settings: Homo sapiens, single dose 10 µM, 48 h, read-out: Growth inhibition percent (GI %)
[17] = system: SW-620; assay: NCI-60 one-dose SRB screen (Colon Cancer); format: cell-based; settings: Homo sapiens, single dose 10 µM, 48 h, read-out: Growth inhibition percent (GI %)
[18] = system: SF-268; assay: NCI-60 one-dose SRB screen (CNS Cancer); format: cell-based; settings: Homo sapiens, single dose 10 µM, 48 h, read-out: Growth inhibition percent (GI %)
[19] = system: SF-295; assay: NCI-60 one-dose SRB screen (CNS Cancer); format: cell-based; settings: Homo sapiens, single dose 10 µM, 48 h, read-out: Growth inhibition percent (GI %)
[20] = system: SF-539; assay: NCI-60 one-dose SRB screen (CNS Cancer); format: cell-based; settings: Homo sapiens, single dose 10 µM, 48 h, read-out: Growth inhibition percent (GI %)
[21] = system: SNB-19; assay: NCI-60 one-dose SRB screen (CNS Cancer); format: cell-based; settings: Homo sapiens, single dose 10 µM, 48 h, read-out: Growth inhibition percent (GI %)
[22] = system: SNB-75; assay: NCI-60 one-dose SRB screen (CNS Cancer); format: cell-based; settings: Homo sapiens, single dose 10 µM, 48 h, read-out: Growth inhibition percent (GI %)
[23] = system: U251; assay: NCI-60 one-dose SRB screen (CNS Cancer); format: cell-based; settings: Homo sapiens, U-251, single dose 10 µM, 48 h, read-out: Growth inhibition percent (GI %)
[24] = system: LOX IMVI; assay: NCI-60 one-dose SRB screen (Melanoma); format: cell-based; settings: Homo sapiens, single dose 10 µM, 48 h, read-out: Growth inhibition percent (GI %)
[25] = system: M14; assay: NCI-60 one-dose SRB screen (Melanoma); format: cell-based; settings: Homo sapiens, single dose 10 µM, 48 h, read-out: Growth inhibition percent (GI %)
[26] = system: MALME-3M; assay: NCI-60 one-dose SRB screen (Melanoma); format: cell-based; settings: Homo sapiens, single dose 10 µM, 48 h, read-out: Growth inhibition percent (GI %)
[27] = system: MDA-MB-435; assay: NCI-60 one-dose SRB screen (Melanoma); format: cell-based; settings: Homo sapiens, single dose 10 µM, 48 h, read-out: Growth inhibition percent (GI %)
[28] = system: SK-MEL-28; assay: NCI-60 one-dose SRB screen (Melanoma); format: cell-based; settings: Homo sapiens, single dose 10 µM, 48 h, read-out: Growth inhibition percent (GI %)
[29] = system: SK-MEL-2; assay: NCI-60 one-dose SRB screen (Melanoma); format: cell-based; settings: Homo sapiens, single dose 10 µM, 48 h, read-out: Growth inhibition percent (GI %)
[30] = system: SK-MEL-5; assay: NCI-60 one-dose SRB screen (Melanoma); format: cell-based; settings: Homo sapiens, single dose 10 µM, 48 h, read-out: Growth inhibition percent (GI %)
[31] = system: UACC-257; assay: NCI-60 one-dose SRB screen (Melanoma); format: cell-based; settings: Homo sapiens, single dose 10 µM, 48 h, read-out: Growth inhibition percent (GI %)
[32] = system: UACC-62; assay: NCI-60 one-dose SRB screen (Melanoma); format: cell-based; settings: Homo sapiens, single dose 10 µM, 48 h, read-out: Growth inhibition percent (GI %)
[33] = system: 786-0; assay: NCI-60 one-dose SRB screen (Renal Cancer); format: cell-based; settings: Homo sapiens, single dose 10 µM, 48 h, read-out: Growth inhibition percent (GI %)
[34] = system: A498; assay: NCI-60 one-dose SRB screen (Renal Cancer); format: cell-based; settings: Homo sapiens, single dose 10 µM, 48 h, read-out: Growth inhibition percent (GI %)
[35] = system: ACHN; assay: NCI-60 one-dose SRB screen (Renal Cancer); format: cell-based; settings: Homo sapiens, single dose 10 µM, 48 h, read-out: Growth inhibition percent (GI %)
[36] = system: CAKI-1; assay: NCI-60 one-dose SRB screen (Renal Cancer); format: cell-based; settings: Homo sapiens, single dose 10 µM, 48 h, read-out: Growth inhibition percent (GI %)
[37] = system: RXF 393; assay: NCI-60 one-dose SRB screen (Renal Cancer); format: cell-based; settings: Homo sapiens, single dose 10 µM, 48 h, read-out: Growth inhibition percent (GI %)
[38] = system: TK-10; assay: NCI-60 one-dose SRB screen (Renal Cancer); format: cell-based; settings: Homo sapiens, single dose 10 µM, 48 h, read-out: Growth inhibition percent (GI %)
[39] = system: UO-31; assay: NCI-60 one-dose SRB screen (Renal Cancer); format: cell-based; settings: Homo sapiens, single dose 10 µM, 48 h, read-out: Growth inhibition percent (GI %)
[40] = system: BT-549; assay: NCI-60 one-dose SRB screen (Breast Cancer); format: cell-based; settings: Homo sapiens, single dose 10 µM, 48 h, read-out: Growth inhibition percent (GI %)
[41] = system: HS 578T; assay: NCI-60 one-dose SRB screen (Breast Cancer); format: cell-based; settings: Homo sapiens, single dose 10 µM, 48 h, read-out: Growth inhibition percent (GI %)
[42] = system: MCF-7; assay: NCI-60 one-dose SRB screen (Breast Cancer); format: cell-based; settings: Homo sapiens, MCF7, single dose 10 µM, 48 h, read-out: Growth inhibition percent (GI %)
[43] = system: MDA-MB-231/ATCC; assay: NCI-60 one-dose SRB screen (Breast Cancer); format: cell-based; settings: Homo sapiens, single dose 10 µM, 48 h, read-out: Growth inhibition percent (GI %)
[44] = system: MDA-MB-468; assay: NCI-60 one-dose SRB screen (Breast Cancer); format: cell-based; settings: Homo sapiens, single dose 10 µM, 48 h, read-out: Growth inhibition percent (GI %)
[45] = system: T-47D; assay: NCI-60 one-dose SRB screen (Breast Cancer); format: cell-based; settings: Homo sapiens, T47D, single dose 10 µM, 48 h, read-out: Growth inhibition percent (GI %)
[46] = target: hCA IX (Homo sapiens, UniProt Q16790); assay: CA inhibitory activity, spectrophotometric p-NPA assay; format: biochemical; settings: for IC50: p-NPA substrate, pH 7.5, 25 °C, triplicate, read-out: IC50 (µM) ± SD hCA IX
Experimental: The software used to calculate CA IC50 along with statistical analysis of the results is GraphPad Prism 9.00. Results were estimated by using one-way ANOVA and the Bonferroni’s multiple comparisons posthoc test was performed (P < 0.05) [46]
Carbonic anhydrase inhibitory activity:
The spectrophotometric assay was conducted in HEPES-Tris buffer, NaCl of pH 7.5 (20mM) at 25◦C. Each inhibitory well-consisted of 50 μL of assay buffer solution, 20 μL of hCA enzyme solution (20 ng/μL in Assay Buffer), and 50 μL of test compound in HPLC grade DMSO (maintain 10% of the final concentration). The mixture solution was
Substrate p-nitrophenyl acetate (p-NPA) (0.7mM) was prepared in HPLC grade methanol and the reaction was started by adding 20 μL to a well in a 96-well-plate. The amount of product formed was measured for 30 min continuously at 1 min intervals at 400 nm in a 96-well-plate using xMARK microplate spectrophotometer, Bio-Rad (USA). The activity of the controlled compound was taken as 100%. All experiments were carried out in triplicates of each used concentration, and results are represented as a

SMILES: CS(=O)(=O)c1ccc(-c2nn(-c3ccc(S(N)(=O)=O)cc3)cc2C(=O)OCC(=O)Nc2ccc(S(N)(=O)=O)cc2)cc1 [Compound 4e, 2-Oxo-2-[(4-sulfamoylphenyl)amino] ethyl 3-(4-(methylsulfonyl)phenyl)-1-(4-sulfamoylphenyl)-1H-pyrazole-4-carboxylate]
- inhibition at 10 µM [1]: < 5%
- inhibition at 10 µM [2]: 6.92%
- inhibition at 10 µM [3]: < 5%
- inhibition at 10 µM [4]: < 5%
- inhibition at 10 µM [5]: < 5%
- inhibition at 10 µM [6]: < 5%
- inhibition at 10 µM [7]: < 5%
- inhibition at 10 µM [8]: < 5%
- inhibition at 10 µM [9]: < 5%
- inhibition at 10 µM [10]: 23.1%
- inhibition at 10 µM [11]: < 5%
- inhibition at 10 µM [12]: < 5%
- inhibition at 10 µM [13]: < 5%
- inhibition at 10 µM [14]: < 5%
- inhibition at 10 µM [15]: 6.67%
- inhibition at 10 µM [16]: < 5%
- inhibition at 10 µM [17]: < 5%
- inhibition at 10 µM [18]: < 5%
- inhibition at 10 µM [19]: < 5%
- inhibition at 10 µM [20]: < 5%
- inhibition at 10 µM [21]: < 5%
- inhibition at 10 µM [22]: < 5%
- inhibition at 10 µM [23]: < 5%
- inhibition at 10 µM [24]: < 5%
- inhibition at 10 µM [25]: < 5%
- inhibition at 10 µM [26]: < 5%
- inhibition at 10 µM [27]: < 5%
- inhibition at 10 µM [28]: < 5%
- inhibition at 10 µM [29]: < 5%
- inhibition at 10 µM [30]: < 5%
- inhibition at 10 µM [31]: 6.07%
- inhibition at 10 µM [32]: < 5%
- inhibition at 10 µM [33]: < 5%
- inhibition at 10 µM [34]: < 5%
- inhibition at 10 µM [35]: < 5%
- inhibition at 10 µM [36]: 8.93%
- inhibition at 10 µM [37]: < 5%
- inhibition at 10 µM [38]: < 5%
- inhibition at 10 µM [39]: 8.95%
- inhibition at 10 µM [40]: < 5%
- inhibition at 10 µM [41]: < 5%
- inhibition at 10 µM [42]: < 5%
- inhibition at 10 µM [43]: < 5%
- inhibition at 10 µM [44]: < 5%
- inhibition at 10 µM [45]: < 5%
- Ki [46]: 72 nM
- IC50 [46]: 0.07 µM and 0.072 µM

SMILES: NC(=S)NNC(=O)c1cn(-c2ccc(S(N)(=O)=O)cc2)nc1-c1ccccc1 [Compound 9a, 2-[3-Phenyl-1-(4-sulfamoylphenyl)-1H-pyrazole-4-carbonyl] hydrazine-1-carbothioamide]
- inhibition at 10 µM [1]: < 5%
- inhibition at 10 µM [2]: 10.9%
- inhibition at 10 µM [3]: < 5%
- inhibition at 10 µM [4]: 8.3%
- inhibition at 10 µM [5]: < 5%
- inhibition at 10 µM [6]: < 5%
- inhibition at 10 µM [7]: < 5%
- inhibition at 10 µM [8]: < 5%
- inhibition at 10 µM [9]: < 5%
- inhibition at 10 µM [10]: 23.9%
- inhibition at 10 µM [11]: < 5%
- inhibition at 10 µM [12]: < 5%
- inhibition at 10 µM [13]: < 5%
- inhibition at 10 µM [14]: < 5%
- inhibition at 10 µM [15]: 10.8%
- inhibition at 10 µM [16]: < 5%
- inhibition at 10 µM [17]: < 5%
- inhibition at 10 µM [18]: < 5%
- inhibition at 10 µM [19]: < 5%
- inhibition at 10 µM [20]: 6.07%
- inhibition at 10 µM [21]: < 5%
- inhibition at 10 µM [22]: < 5%
- inhibition at 10 µM [23]: < 5%
- inhibition at 10 µM [24]: < 5%
- inhibition at 10 µM [25]: < 5%
- inhibition at 10 µM [26]: < 5%
- inhibition at 10 µM [27]: < 5%
- inhibition at 10 µM [28]: < 5%
- inhibition at 10 µM [29]: < 5%
- inhibition at 10 µM [30]: < 5%
- inhibition at 10 µM [31]: < 5%
- inhibition at 10 µM [32]: 8.26%
- inhibition at 10 µM [33]: 9.98%
- inhibition at 10 µM [34]: < 5%
- inhibition at 10 µM [35]: < 5%
- inhibition at 10 µM [36]: < 5%
- inhibition at 10 µM [37]: < 5%
- inhibition at 10 µM [38]: 12.3%
- inhibition at 10 µM [39]: < 5%
- inhibition at 10 µM [40]: < 5%
- inhibition at 10 µM [41]: < 5%
- inhibition at 10 µM [42]: < 5%
- inhibition at 10 µM [43]: < 5%
- inhibition at 10 µM [44]: < 5%
- inhibition at 10 µM [45]: < 5%
- IC50 [46]: 0.21 µM and 0.215 µM
